Measured values from patent US4567302A, “Polymeric quaternary ammonium salts possessing antimicrobial activity and methods for preparation and use thereof” (priority 1984, dated 1986).

Test system: microorganisms
Experiment: Biocidal activity evaluation, overall comparison in words
Format: cell-based
Protocol: The biocidal activity evaluations of the present invention quaternary ammonium salts and mixtures thereof as well as of commercially available biocides (for comparison purposes) were conducted using the Dynatech MIC-2000 system (available from Dynatech Laboratories, Inc., Alexandria, Va.). The Dynatech MIC-2000 system provides a quantitative factor, namely the specific concentration of the compound that inhibits the growth of a test organism.
All compounds were prepared for testing by initially making a 1.0% w/v solution. These were then serially diluted so as to yield concentrations of sample in a range of 2000-16 mg/l. Testing was carried out under aseptic conditions in Trypticase Soy Broth (BBL, Div. Becton, Dickinson & Co., Cockeysville, MD). Each test was performed in duplicate and run at pH levels of 7.0, 8.0, and 9.0. The pH of the test medium was adjusted by the addition of 10% w/v NaOH before sterilization.
Organisms utilized for MIC testing were all purchased from the American Type Culture Collection (ATCC), Rockville, MD. The six organisms chosen for these tests were:
Inocula were prepared in Brain Heart Infusion Broth (BHI, Difco Laboratories, Detroit, MI), and standardized to 3.0×10^8 CFU/ml in 0.85% sterile saline. […] Plates were read and evaluated at this time, and results reported in mg/l of compound that inhibited the growth of the test organisms.

## O=[N+]([O-])C(Br)(CO)CO [Bronopol]
  biocidal activity (in words): more active than the quaternary ammonium salts of the present invention
